ChEMBL document CHEMBL1153049, “Identification of aminoethyl pyrrolo dihydroisoquinolinones as novel poly(ADP-ribose) polymerase-1 inhibitors” (Bioorg Med Chem Lett, 2009)
Calls of active or inactive are those of the source. The rule behind the calls is not given here.

How the values were obtained:
[1] = target: Poly [ADP-ribose] polymerase 2 (Homo sapiens, UniProt Q9UGN5); test: Inhibition of human PARP2 expressed in baculovirus system
[2] = target: T1, Protein mono-ADP-ribosyltransferase PARP3 (Homo sapiens) (UniProt Q9Y6F1); test: Inhibition of human PARP3 up to 500 nM
T1 sequence (whole entry): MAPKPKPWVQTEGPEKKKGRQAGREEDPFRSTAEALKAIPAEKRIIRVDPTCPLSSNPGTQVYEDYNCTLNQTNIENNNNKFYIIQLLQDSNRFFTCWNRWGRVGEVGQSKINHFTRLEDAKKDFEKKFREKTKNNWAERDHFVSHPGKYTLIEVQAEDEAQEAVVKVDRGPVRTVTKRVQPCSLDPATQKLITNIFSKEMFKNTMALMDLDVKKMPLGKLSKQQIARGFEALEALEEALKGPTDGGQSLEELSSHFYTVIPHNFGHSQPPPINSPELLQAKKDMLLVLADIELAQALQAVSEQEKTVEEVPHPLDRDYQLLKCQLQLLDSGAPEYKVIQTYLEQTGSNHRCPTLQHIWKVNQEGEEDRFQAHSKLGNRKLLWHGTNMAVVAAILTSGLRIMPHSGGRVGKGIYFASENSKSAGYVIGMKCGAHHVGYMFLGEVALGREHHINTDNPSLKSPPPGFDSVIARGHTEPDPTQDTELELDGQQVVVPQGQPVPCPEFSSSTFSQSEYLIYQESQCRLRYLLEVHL

[3] = target: Protein mono-ADP-ribosyltransferase PARP4 (Homo sapiens) (UniProt Q9UKK3); test: Inhibition of human vPARP catalytic domain expressed in Escherichia coli up to 500 nM
Protein mono-ADP-ribosyltransferase PARP4 (Homo sapiens), sequence (Q9UKK3 whole entry, the tested form may be a part): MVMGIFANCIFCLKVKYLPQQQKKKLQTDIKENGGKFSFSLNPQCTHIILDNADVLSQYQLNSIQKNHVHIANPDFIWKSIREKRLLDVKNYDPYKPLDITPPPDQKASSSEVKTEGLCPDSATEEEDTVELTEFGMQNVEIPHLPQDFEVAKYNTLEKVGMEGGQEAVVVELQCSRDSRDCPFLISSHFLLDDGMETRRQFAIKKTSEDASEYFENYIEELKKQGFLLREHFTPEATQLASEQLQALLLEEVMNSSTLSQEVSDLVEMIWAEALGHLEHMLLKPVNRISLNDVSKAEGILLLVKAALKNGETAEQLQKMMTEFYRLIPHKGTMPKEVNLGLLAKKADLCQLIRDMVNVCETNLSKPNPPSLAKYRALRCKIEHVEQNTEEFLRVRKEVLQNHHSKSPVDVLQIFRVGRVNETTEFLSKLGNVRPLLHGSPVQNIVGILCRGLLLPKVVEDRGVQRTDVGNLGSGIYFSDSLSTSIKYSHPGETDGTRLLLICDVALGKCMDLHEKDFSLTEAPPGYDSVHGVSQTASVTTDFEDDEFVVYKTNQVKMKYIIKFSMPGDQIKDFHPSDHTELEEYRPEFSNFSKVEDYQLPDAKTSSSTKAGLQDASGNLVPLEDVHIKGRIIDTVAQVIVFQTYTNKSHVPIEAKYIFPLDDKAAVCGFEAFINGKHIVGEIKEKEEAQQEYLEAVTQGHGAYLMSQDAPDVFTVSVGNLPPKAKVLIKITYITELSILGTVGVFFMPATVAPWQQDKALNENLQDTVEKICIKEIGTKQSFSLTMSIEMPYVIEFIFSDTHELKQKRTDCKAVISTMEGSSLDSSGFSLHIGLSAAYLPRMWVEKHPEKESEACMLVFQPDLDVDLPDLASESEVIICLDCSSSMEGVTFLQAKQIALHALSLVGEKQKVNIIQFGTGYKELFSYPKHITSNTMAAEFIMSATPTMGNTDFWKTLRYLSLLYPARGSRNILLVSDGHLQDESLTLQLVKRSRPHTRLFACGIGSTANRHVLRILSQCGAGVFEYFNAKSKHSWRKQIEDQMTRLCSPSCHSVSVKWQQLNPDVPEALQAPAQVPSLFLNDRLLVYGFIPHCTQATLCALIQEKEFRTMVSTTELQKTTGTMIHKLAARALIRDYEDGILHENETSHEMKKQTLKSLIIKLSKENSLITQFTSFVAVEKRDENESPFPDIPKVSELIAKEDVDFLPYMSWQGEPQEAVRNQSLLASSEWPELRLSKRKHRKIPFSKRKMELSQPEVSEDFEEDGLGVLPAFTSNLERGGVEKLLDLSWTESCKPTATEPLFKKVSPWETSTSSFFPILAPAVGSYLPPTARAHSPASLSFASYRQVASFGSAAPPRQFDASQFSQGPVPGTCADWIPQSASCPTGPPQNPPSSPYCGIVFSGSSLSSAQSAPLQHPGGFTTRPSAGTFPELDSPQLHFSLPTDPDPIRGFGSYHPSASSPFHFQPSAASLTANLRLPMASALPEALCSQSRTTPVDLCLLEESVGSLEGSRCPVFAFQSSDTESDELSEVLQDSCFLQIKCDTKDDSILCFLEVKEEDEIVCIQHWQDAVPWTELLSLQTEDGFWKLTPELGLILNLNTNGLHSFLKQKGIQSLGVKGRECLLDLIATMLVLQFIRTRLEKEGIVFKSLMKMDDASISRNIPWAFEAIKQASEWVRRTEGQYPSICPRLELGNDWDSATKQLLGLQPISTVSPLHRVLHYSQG

[4] = target: T2, Poly [ADP-ribose] polymerase tankyrase-1 (Homo sapiens) (UniProt O95271); test: Inhibition of human tankyrase 1 catalytic domain expressed in Escherichia coli up to 500 nM
T2 sequence (whole entry): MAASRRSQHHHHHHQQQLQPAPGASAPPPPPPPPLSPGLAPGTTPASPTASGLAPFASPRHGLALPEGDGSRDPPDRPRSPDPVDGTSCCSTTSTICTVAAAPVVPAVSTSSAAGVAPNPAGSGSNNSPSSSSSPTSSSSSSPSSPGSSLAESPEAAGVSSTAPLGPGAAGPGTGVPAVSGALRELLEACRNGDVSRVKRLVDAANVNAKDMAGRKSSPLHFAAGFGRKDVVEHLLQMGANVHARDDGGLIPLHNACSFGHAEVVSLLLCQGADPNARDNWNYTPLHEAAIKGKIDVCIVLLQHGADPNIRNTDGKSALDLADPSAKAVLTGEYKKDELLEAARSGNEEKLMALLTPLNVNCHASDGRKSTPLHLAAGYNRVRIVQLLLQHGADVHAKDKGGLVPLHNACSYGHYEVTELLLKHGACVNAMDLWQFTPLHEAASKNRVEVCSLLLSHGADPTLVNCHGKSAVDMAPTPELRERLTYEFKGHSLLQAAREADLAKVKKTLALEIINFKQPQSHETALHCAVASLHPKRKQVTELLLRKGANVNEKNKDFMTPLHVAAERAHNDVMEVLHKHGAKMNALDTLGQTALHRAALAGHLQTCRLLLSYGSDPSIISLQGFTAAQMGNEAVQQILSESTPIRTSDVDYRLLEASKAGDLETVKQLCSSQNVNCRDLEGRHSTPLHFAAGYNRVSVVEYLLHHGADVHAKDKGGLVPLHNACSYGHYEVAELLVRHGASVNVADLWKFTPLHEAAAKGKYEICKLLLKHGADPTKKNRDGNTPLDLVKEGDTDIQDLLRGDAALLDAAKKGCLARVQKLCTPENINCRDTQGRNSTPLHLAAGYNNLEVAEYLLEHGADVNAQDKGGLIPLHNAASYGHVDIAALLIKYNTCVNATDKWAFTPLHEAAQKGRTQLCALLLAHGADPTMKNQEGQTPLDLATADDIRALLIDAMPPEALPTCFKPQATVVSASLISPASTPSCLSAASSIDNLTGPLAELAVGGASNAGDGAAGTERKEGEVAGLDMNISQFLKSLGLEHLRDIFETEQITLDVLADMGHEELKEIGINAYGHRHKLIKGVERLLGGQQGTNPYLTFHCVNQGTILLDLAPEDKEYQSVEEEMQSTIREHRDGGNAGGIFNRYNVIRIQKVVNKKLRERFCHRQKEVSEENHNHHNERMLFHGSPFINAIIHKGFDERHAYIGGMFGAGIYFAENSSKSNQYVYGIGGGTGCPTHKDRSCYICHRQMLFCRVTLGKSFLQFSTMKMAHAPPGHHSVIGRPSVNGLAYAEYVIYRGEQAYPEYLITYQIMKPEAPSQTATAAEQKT

[5] = target: Poly [ADP-ribose] polymerase 1 (Homo sapiens, UniProt P09874)
Poly [ADP-ribose] polymerase 1, sequence (P09874 whole entry): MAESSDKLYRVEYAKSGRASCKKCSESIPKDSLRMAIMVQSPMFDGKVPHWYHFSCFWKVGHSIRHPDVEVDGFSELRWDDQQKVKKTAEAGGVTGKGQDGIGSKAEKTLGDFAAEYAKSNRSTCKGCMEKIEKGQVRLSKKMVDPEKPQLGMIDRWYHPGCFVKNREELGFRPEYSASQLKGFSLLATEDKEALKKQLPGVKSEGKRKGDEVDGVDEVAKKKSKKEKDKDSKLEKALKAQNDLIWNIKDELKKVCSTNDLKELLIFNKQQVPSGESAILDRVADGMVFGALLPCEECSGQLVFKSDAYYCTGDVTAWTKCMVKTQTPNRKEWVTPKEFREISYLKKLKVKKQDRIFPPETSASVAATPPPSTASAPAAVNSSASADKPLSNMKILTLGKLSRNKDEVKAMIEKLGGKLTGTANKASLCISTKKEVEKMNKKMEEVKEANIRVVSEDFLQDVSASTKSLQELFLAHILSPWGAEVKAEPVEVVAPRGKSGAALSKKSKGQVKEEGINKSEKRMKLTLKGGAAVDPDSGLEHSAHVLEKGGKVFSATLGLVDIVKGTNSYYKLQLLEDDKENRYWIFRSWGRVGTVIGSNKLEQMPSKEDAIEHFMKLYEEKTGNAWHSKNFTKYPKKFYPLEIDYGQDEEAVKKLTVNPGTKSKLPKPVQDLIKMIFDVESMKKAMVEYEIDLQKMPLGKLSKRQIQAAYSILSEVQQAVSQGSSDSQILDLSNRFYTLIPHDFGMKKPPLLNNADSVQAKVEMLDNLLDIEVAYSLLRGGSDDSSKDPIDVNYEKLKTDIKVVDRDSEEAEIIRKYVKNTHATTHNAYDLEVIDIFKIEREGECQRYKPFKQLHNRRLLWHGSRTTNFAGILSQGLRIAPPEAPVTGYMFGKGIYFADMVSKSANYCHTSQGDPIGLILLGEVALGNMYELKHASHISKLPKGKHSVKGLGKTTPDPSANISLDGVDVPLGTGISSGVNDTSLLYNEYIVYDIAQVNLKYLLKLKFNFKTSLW
Description: Inhibition of PARP1 in human HeLa cells by microplate scintillation counting

Poly [ADP-ribose] polymerase 2, sequence (Q9UGN5 whole entry): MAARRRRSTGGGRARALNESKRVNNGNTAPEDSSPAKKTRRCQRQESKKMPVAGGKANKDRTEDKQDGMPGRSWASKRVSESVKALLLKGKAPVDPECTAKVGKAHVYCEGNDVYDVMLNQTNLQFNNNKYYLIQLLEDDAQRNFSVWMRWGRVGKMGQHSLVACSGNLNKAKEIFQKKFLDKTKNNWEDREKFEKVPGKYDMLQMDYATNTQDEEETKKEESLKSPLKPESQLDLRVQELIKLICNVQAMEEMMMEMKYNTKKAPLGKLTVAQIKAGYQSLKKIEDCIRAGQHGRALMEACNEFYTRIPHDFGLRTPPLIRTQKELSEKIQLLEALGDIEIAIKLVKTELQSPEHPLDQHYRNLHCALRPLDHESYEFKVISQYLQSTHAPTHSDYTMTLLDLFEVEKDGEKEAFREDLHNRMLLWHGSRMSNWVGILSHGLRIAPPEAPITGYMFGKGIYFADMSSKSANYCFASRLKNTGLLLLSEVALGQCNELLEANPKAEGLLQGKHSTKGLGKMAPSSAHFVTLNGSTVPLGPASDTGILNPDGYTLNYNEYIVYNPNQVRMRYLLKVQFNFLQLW

Compound	IC50 [1]	inhibition [2]	inhibition [3]	inhibition [4]	IC50 [5]
O=C1NCCc2c1ccc1[nH]cc(CCNC(=O)N3CCCNCC3)c21	17 nM	inactive	inactive	inactive	27 nM
O=C1NCCc2c1ccc1[nH]cc(CCNCc3cccc4cccnc34)c21					> 500 nM
O=C1NCCc2c1ccc1[nH]cc(CCNC(=O)N3CCNCC3)c21	32 nM	inactive	inactive	inactive	25 nM
Cn1cc(CNCCc2c[nH]c3ccc4c(c23)CCNC4=O)cn1					> 500 nM
